Active and inactive are the calls of the source. No cut-off for these calls is given here.
Tests used:
HL-60 [1] = assay: Induction of apoptosis in human HL60 cells assessed as loss of mitochondrial membrane potential in P5 quadrant at 5 uM by Rhodamine123 assay (reference value: 3.4%); assay type: functional
[2] = target: T1, Histone deacetylase (Homo sapiens) (UniProt Q13547+O15379+Q9UBN7+Q92769+Q9UQL6+Q8WUI4+Q9BY41+Q96DB2+P56524+Q9UKV0+Q969S8); assay: Inhibition of HDAC (unknown origin) at 50 uM; assay type: protein assay
[3] = Cell cycle arrest in human HL60 cells assessed as accumulation at sub-G1 phase at 1 uM by propidium iodide staining-based flow cytometry (reference value: 2.1%); assay type: functional; conditions: HL-60
Histone deacetylase = assay: Inhibition of HDAC (unknown origin); assay type: protein assay, Homo sapiens
[4] = Cytotoxicity against human HCT116 cells; assay type: functional, cell-based; conditions: HCT-116
[5] = target: T1, Histone deacetylase (Homo sapiens); assay: Inhibition of HDAC (unknown origin) at 1 uM; assay type: protein assay
[6] = Cell cycle arrest in human HL60 cells assessed as accumulation at S phase at 5 uM by propidium iodide staining-based flow cytometry (reference value: 17.3%); assay type: functional; conditions: HL-60
HL-60 [7] = assay: Induction of apoptosis in human HL60 cells assessed as loss of mitochondrial membrane potential in P4 quadrant at 5 uM by Rhodamine123 assay (reference value: 96.6%); assay type: functional
[8] = Cell cycle arrest in human HL60 cells assessed as accumulation at S phase at 1 uM by propidium iodide staining-based flow cytometry (reference value: 17.3%); assay type: functional; conditions: HL-60
[9] = Cell cycle arrest in human HL60 cells at 5 to 10 uM by propidium iodide staining-based flow cytometry; assay type: functional; conditions: HL-60
MCF7 = assay: Cytotoxicity against human MCF7 cells; assay type: functional, cell-based
HL-60 [10] = assay: Induction of apoptosis in human HL60 cells assessed as loss of mitochondrial membrane potential in P5 quadrant at 1 uM by Rhodamine123 assay (reference value: 3.4%); assay type: functional
[11] = Cytotoxicity against human MIAPaCa2 cells; assay type: functional, cell-based; conditions: MIA PaCa-2
[12] = Cytotoxicity against human FR2 cells; assay type: cell-based
[13] = Cell cycle arrest in human HL60 cells assessed as accumulation at G1 phase at 1 uM by propidium iodide staining-based flow cytometry (reference value: 58.9%); assay type: functional; conditions: HL-60
[14] = Cell cycle arrest in human HL60 cells assessed as accumulation at sub-G1 phase at 5 uM by propidium iodide staining-based flow cytometry (reference value: 2.1%); assay type: functional; conditions: HL-60
[15] = Cell cycle arrest in human HL60 cells assessed as accumulation at G1 phase at 5 uM by propidium iodide staining-based flow cytometry (reference value: 58.9%); assay type: functional; conditions: HL-60
[16] = Cell cycle arrest in human HL60 cells assessed as accumulation at G2/M phase at 1 uM by propidium iodide staining-based flow cytometry (reference value: 21.3%); assay type: functional; conditions: HL-60
A549 = assay: Cytotoxicity against human A549 cells; assay type: functional, cell-based
[17] = target: T1, Histone deacetylase (Homo sapiens); assay: Inhibition of HDAC (unknown origin) at 30 uM; assay type: protein assay
[18] = Cytotoxicity against human HL60 cells; assay type: functional, cell-based; conditions: HL-60
[19] = Cell cycle arrest in human HL60 cells assessed as accumulation at G2/M phase at 5 uM by propidium iodide staining-based flow cytometry (reference value: 21.3%); assay type: functional; conditions: HL-60
HL-60 [20] = assay: Induction of apoptosis in human HL60 cells assessed as loss of mitochondrial membrane potential in P4 quadrant at 1 uM by Rhodamine123 assay (reference value: 96.6%); assay type: functional
[21] = target: T1, Histone deacetylase (Homo sapiens); assay: Inhibition of HDAC (unknown origin) at 10 uM; assay type: protein assay
[22] = target: T1, Histone deacetylase (Homo sapiens); assay: Inhibition of HDAC (unknown origin) at 20 uM; assay type: protein assay

inhibition [2] [%]	IC50 (Histone deacetylase) [µM]	inhibition [17] [%]	Compound	Activity (HL-60 [1]) [%]	Activity [3] [%]	IC50 [4] [µM]	Activity [6] [%]	Activity (HL-60 [7]) [%]	Activity [8] [%]	IC50 (MCF7) [µM]	Activity (HL-60 [10]) [%]	IC50 [11] [µM]	IC50 [12] [µM]	Activity [13] [%]	Activity [14] [%]	Activity [15] [%]	Activity [16] [%]	IC50 (A549) [µM]	IC50 [18] [µM]	Activity [19] [%]	also measured
88	6	86	C[C@H]1[C@H](C)CC[C@]2(C)CC[C@]3(C)C(=CC(=O)[C@@H]4[C@@]5(C)CC[C@@H](O)[C@](C)(NC(=O)CCCC(=O)NO)[C@@H]5CC[C@]43C)[C@H]12	96.4	6.1	15.1	0.7	3.6	8	7.1	6.7	15.1	1.9	74.5	92.2	7.2	10.7	13	1.6	7.1	inhibition [5]: 23%; Activity [9]: Active; Activity (HL-60 [20]): 93.3%; inhibition [21]: 65%; inhibition [22]: 70%
56	30	50	C[C@H]1[C@H](C)CC[C@]2(C)CC[C@]3(C)C(=CC[C@@H]4[C@@]5(C)CC[C@@H](O)[C@](C)(NC(=O)CCCCCCC(=O)NO)[C@@H]5CC[C@]43C)[C@H]12	29.8	7.4	> 20	15.7	70.2	16.8	> 20	3.2	> 20	> 20	57.8	4.5	60.6	16.8	> 20	> 20	18.6	Activity (HL-60 [20]): 96.8%
